In US5707679A, “Metal propionates for use as animal feed supplements” (priority 1995, dated 1998):
Where two headings read alike, the source gives them in different places.

Key:
[1] = Comparative zinc bioavailability trial in day-old broilers (growth, feed conversion, bone ash, tibia ash zinc, plasma zinc); conditions: for Relative Biological Availability: Feed conversion (corr.): 3-21 days; for Relative Biological Availability: Body weight gain / Relative Biological Availability: Bone ash / Relative Biological Availability: Ending body weight: 21 days
Experimental: Each zinc treatment was replicated eight times and each pen contained ten male birds.
Basal feeds and zinc compound were mixed in a horizontal feed mixer providing the desired ingredient composition as shown in Table 2. The broilers were fed the rations for 21 days. Feed weights were taken during the trial. Body weights were measured at the beginning and at the end of the trial. On day 21, zinc levels in the blood and tibia ash were determined. The assay procedures for total tibia zinc content or concentration to assess zinc utilization are similar to those used by Wedekind et al., J. Anim. Sci., 70:178-187 (1992). The data were analyzed according to the SAS statistical package.
Chick growth parameters and zinc levels in the blood and tibia ash were used as criteria to determine the biological availability of zinc. […] The biological availability of zinc sulfate was arbitrarily set at 100%.

[2] = Performance of finishing cattle (Study 1: weight, gain, feed intake, gain/feed); type: in vivo, Angus crossbred steers; set-up: Average daily gain: unit not given here; conditions: finishing steers; for Final weight / Initial weight: 25 ppm supplemental zinc; for Final weight: 140-day study; for Initial weight: baseline
Text: Fifty-six Angus crossbred steers were used in this study. Steers were purchased from either a feeder calf sale […] a preconditioned sale. Steers were blocked by sale type and weight, and then randomly assigned to a feed regimen. […] All regimens provided 25 ppm of supplemental zinc. Steers were housed in pens containing seven steers each.
Supplemental protein was supplied from a combination of soybean meal and urea. Steer weights were obtained on two consecutive days at the beginning and the end of the 140-day study. Interim weights were taken at 28-day intervals. Feed intake was measured daily. Blood and rumen fluid samples were obtained from 10 steers per treatment approximately two hours post feeding on day 42 of the study. Samples were analyzed for plasma and rumen fluid soluble zinc concentrations. Data were analyzed statistically by least square analysis of variance.

[3] = Performance of growing cattle (Study 2: weight, gain, feed intake, gain/feed); type: in vivo, Angus steers; conditions: for Average daily gain / Feed intake / Gain/feed / Final weight / Initial weight: growing steers; for Final weight / Initial weight: 25 ppm supplemental zinc; for Initial weight: baseline
Text: Thirty-six Angus steers with an average body weight of 268 kg were stratified by weight and randomly assigned to feed regimens. […] Zinc was supplemented in all treatments to provide 25 ppm of supplemental zinc.
Steers were housed in pens of 12 steers and individually fed using electronic gates. Each pen contained an equal number of steers from each dietary regimen. Steers were fed a basal corn silage-based growing diet supplemented with protein, minerals and vitamins. Diets were offered ad libitum.
Body weights were obtained on two consecutive days at the initiation and termination of the 112-day study. Interim weights were taken at 28-day intervals. Blood and rumen fluid samples were obtained on day 42 of the study for determination of plasma and rumen fluid soluble zinc concentrations. Data were statistically analyzed by least square analysis of variance.

[4] = cited from earlier work; for biological availability vs inorganic salts (in words): polyvalent metal ions from metal-amino acid complexes; for absorption of metal cations in the gastrointestinal tract (in words): in vivo
[5] = chickens; cited from earlier work
[6] = in vivo; cited from earlier work
[7] = bovine, in vivo; cited from earlier work
[8] = zinc sulfate arbitrarily set at 100%
[9] = day 21, zinc sulfate arbitrarily set at 100%
[10] = 0 to 28 days, propionate vs. sulfate P < 0.05, vs. methionine P < 0.10
[11] = 55 to 112 days (so in the source)
[12] = 0 to 28 days, propionate vs. methionine P < 0.05, vs. sulfate P < 0.10 (as footnoted)
[13] = 29 to 56 days, propionate vs. methionine P < 0.05
[14] = 29 to 56 days, propionate vs. sulfate P < 0.05, vs. methionine P < 0.10
[15] = 57 to 84 days, propionate vs. sulfate P < 0.10
[16] = Total (0 to 112 days), propionate vs. sulfate P < 0.05, vs. methionine P < 0.10

Compound: CSCC[C@H](N)C(=O)O.O=S(=O)([O-])O.O=S(=O)([O-])O.[Zn+2] [Zinc methionine, Zinc methionine bisulfate]
- Relative Biological Availability: Feed conversion (corr.) [1, 8]: 90.38%
- Relative Biological Availability: Body weight gain [1, 8]: 131.52%
- Relative Biological Availability: Bone ash [1, 8]: 113.95%
- Relative Biological Availability: Ending body weight [1, 8]: 132.46%
- levels of zinc in the blood and tibia ash (in words) ([1]; day 21): comparable levels of zinc in the blood and tibia ash
- Relative Biological Availability: Plasma Zinc [1, 9]: 124.00%
- Relative Biological Availability: Tibia ash zinc [1, 9]: 123.99%
- Average daily gain ([2]; 0 to 28 days): 1.32
- Feed intake ([2]; 0 to 28 days): 6.35 kg/day
- Gain/feed [2, 10]: 0.208
- Final weight [2]: 487.6 kg
- Initial weight [2]: 304.7 kg
- Average daily gain ([2]; 29 to 56 days): 1.45
- Feed intake ([2]; 29 to 56 days): 7.76 kg/day
- Gain/feed ([2]; 29 to 56 days): 0.186
- Gain/feed [2, 11]: 0.115
- Average daily gain ([2]; 57 to 84 days): 1.57
- Feed intake ([2]; 57 to 84 days): 6.43 kg/day
- Gain/feed ([2]; 57 to 84 days): 0.244
- Average daily gain ([2]; 85 to 112 days): 0.97
- Feed intake ([2]; 85 to 112 days): 8.51 kg/day
- Average daily gain ([2]; 113 to 140 days): 1.22
- Feed intake ([2]; 113 to 140 days): 6.59 kg/day
- Gain/feed ([2]; 113 to 140 days): 0.184
- Average daily gain ([2]; Total (0 to 140 days)): 1.31
- Feed intake ([2]; Total (0 to 140 days)): 7.13 kg/day
- Gain/feed ([2]; Total (0 to 140 days)): 0.183
- gains, second 28-day period (in words) ([3]; 29 to 56 days, methionine vs propionate (P<0.05)): gains were greater (P<0.05) in steers fed zinc methionine compared with those fed zinc propionate
- Gains for the entire study (in words) ([3]; 112-day study): tended to be higher for steers fed zinc methionine
- Average daily gain ([3]; 0 to 28 days): 1.33 kg
- Feed intake ([3]; 0 to 28 days): 8.11 kg/day
- Gain/feed [3, 12]: 0.164
- Final weight ([3]; 112-day study): 399.6 kg
- Initial weight [3]: 267.7 kg
- Feed intake ([3]; 29 to 56 days): 9.03 kg/day
- Average daily gain [3, 13]: 1.18 kg
- Gain/feed [3, 14]: 0.132
- Average daily gain ([3]; 57 to 84 days): 0.87 kg
- Gain/feed ([3]; 57 to 84 days): 0.104
- Feed intake [3, 15]: 8.62 kg/day
- Average daily gain ([3]; 85 to 112 days): 1.34 kg
- Feed intake ([3]; 85 to 112 days): 8.56 kg/day
- Gain/feed ([3]; 85 to 112 days): 0.158
- Average daily gain ([3]; Total (0 to 112 days)): 1.18 kg
- Feed intake ([3]; Total (0 to 112 days)): 8.58 kg/day
- Gain/feed [3, 16]: 0.139
- feed consumption (in words) ([3]; total study period, vs zinc sulfate (P<0.10)): consumed more (P<0.10) feed over the total study period than steers fed zinc sulfate
- biological availability vs inorganic salts (in words) [4]: more biologically available to the animal than are the same ions provided from inorganic salts

Compound: O=S(=O)([O-])[O-].[Zn+2] [Zinc sulfate]
- Relative Biological Availability: Feed conversion (corr.) [1, 8]: 100.00%
- Relative Biological Availability: Body weight gain [1, 8]: 100.00%
- Relative Biological Availability: Bone ash [1, 8]: 100.00%
- Relative Biological Availability: Ending body weight [1, 8]: 100.00%
- Relative Biological Availability: Plasma Zinc ([1]; chicken, in vivo, 30240 min): 100.00%
- Relative Biological Availability: Tibia ash zinc ([1]; chicken, in vivo, 30240 min): 100.00%
- Average daily gain ([2]; 0 to 28 days): 1.26
- Feed intake ([2]; 0 to 28 days): 6.28 kg/day
- Gain/feed [2, 10]: 0.201
- Final weight [2]: 489.6 kg
- Initial weight [2]: 303.0 kg
- Average daily gain ([2]; 29 to 56 days): 1.46
- Feed intake ([2]; 29 to 56 days): 7.51 kg/day
- Gain/feed ([2]; 29 to 56 days): 0.195
- Gain/feed [2, 11]: 0.142
- Average daily gain ([2]; 57 to 84 days): 1.52
- Feed intake ([2]; 57 to 84 days): 6.21 kg/day
- Gain/feed ([2]; 57 to 84 days): 0.244
- Average daily gain ([2]; 85 to 112 days): 1.19
- Feed intake ([2]; 85 to 112 days): 8.33 kg/day
- Average daily gain ([2]; 113 to 140 days): 1.24
- Feed intake ([2]; 113 to 140 days): 6.60 kg/day
- Gain/feed ([2]; 113 to 140 days): 0.189
- Average daily gain ([2]; Total (0 to 140 days)): 1.33
- Feed intake ([2]; Total (0 to 140 days)): 6.99 kg/day
- Gain/feed ([2]; Total (0 to 140 days)): 0.191
- Average daily gain ([3]; 0 to 28 days): 1.34 kg
- Feed intake ([3]; 0 to 28 days): 7.67 kg/day
- Gain/feed [3, 12]: 0.178
- Final weight ([3]; 112-day study): 391.8 kg
- Initial weight [3]: 265.5 kg
- Feed intake ([3]; 29 to 56 days): 8.13 kg/day
- Average daily gain [3, 13]: 1.10 kg
- Gain/feed [3, 14]: 0.137
- Average daily gain ([3]; 57 to 84 days): 0.72 kg
- Gain/feed ([3]; 57 to 84 days): 0.095
- Feed intake [3, 15]: 7.62 kg/day
- Average daily gain ([3]; 85 to 112 days): 1.36 kg
- Feed intake ([3]; 85 to 112 days): 7.86 kg/day
- Gain/feed ([3]; 85 to 112 days): 0.174
- Average daily gain ([3]; Total (0 to 112 days)): 1.13 kg
- Feed intake ([3]; Total (0 to 112 days)): 7.82 kg/day
- Gain/feed [3, 16]: 0.145

Compound: CC(=O)[O-].CC(=O)[O-].[Zn+2] [zinc acetate, Zinc acetate]
- toxicity (in words) [5]: toxic to chickens

Compound: O=C([O-])CC(O)(CC(=O)[O-])C(=O)[O-].O=C([O-])CC(O)(CC(=O)[O-])C(=O)[O-].[Zn+2].[Zn+2].[Zn+2] [zinc citrate]
- absorption of metal cations in the gastrointestinal tract (in words) [4]: variable results, enhancing absorption in one study and having no effect in others

Compound: NCCCC[C@H](N)C(=O)O.[Zn] [zinc-lysine]
- biological availability vs inorganic salts (in words) [4]: more biologically available to the animal than are the same ions provided from inorganic salts

Compound: zinc picolinate
- absorption of metal cations in the gastrointestinal tract (in words) [4]: variable results, enhancing absorption in one study and having no effect in others
- absorption of zinc (in words) [6]: enhance the absorption of zinc in humans and rats
- absorption of zinc (in words) [7]: not in cattle
